“Also recorded” adds a separate entry of the source. Read-outs that look alike come from different tables or passages of the source.
How the values were obtained:
[1] = system: platelets; settings: PRP spiked ex vivo with concentrations similar to 44 to 74 ng/mL, data not shown
[2] = other animals; cited from earlier work
[3] = Clinical pathologic testing: automated hemogram; type: in vivo; settings: horses, 24 h after PO or IV administration
Protocol: Automated hemogram results were obtained from the EDTA-anticoagulated blood with a hematology analyzer (ADVIA 2120, Siemens Healthcare Diagnostics Inc., Tarrytown, NJ, USA). To verify the automated platelet counts, modified Wright's-stained blood smears were evaluated for platelet clumps by trained medical technologists. Biochemical analysis for renal analytes (serum urea nitrogen and creatinine concentrations), liver enzymes (sorbitol dehydrogenase, glutamate dehydrogenase, aspartate aminotransferase and gamma glutamyl transferase activities), protein-related analytes (total protein, albumin, and globulin concentrations), and the acute phase protein, serum amyloid A, were performed with an automated chemistry analyzer (Hitachi P modular, Roche Diagnostics, Indianapolis, IN, USA) using manufacturer's reagents, with the exception of sorbitol dehydrogenase (Sigma-Aldrich), glutamate dehydrogenase (Randox Laboratories Ltd, Antrim, UK), and serum amyloid A (LZ test Eiken-SAA, Mast House, Merseyside, UK).

[4] = biological target: T1, bovine activated Factor X (Bos taurus, UniProt P00743); test: Apixaban-calibrated chromogenic anti-Xa activity assay in platelet-poor plasma of dosed horses; type: in vivo, horse; settings: for Anti-Xa activity (ng/mL), median (range): PO 0.2 mg/kg
T1 construct: purchased Diagnostica Stago STA®-Liquid anti-Xa
Protocol: The PPP was harvested from the supernatant of PRP after high-speed centrifugation (13,000 × g, Accuspin Micro, Thermo Scientific, Rockford, IL, USA) for 5 min. The PPP was frozen at −20°C and assays were performed in batches. The PPP was thawed at 37°C in a water bath before analysis with an automated coagulation analyzer (STA® Compact, Diagnostica Stago, Parsipanny, NJ, USA). The assay is configured with a bovine activated Factor X reagent added in excess to the test plasma and a chromogenic substrate of Factor Xa (STA®-Liquid anti-Xa, Diagnostica Stago). In this assay, residual, uninhibited Factor Xa cleaves the chromogenic substrate such that the inverse of the color change in the reaction mixture is proportional to the drug concentration in the test plasma.

[5] = system: plasma protein; settings: rabbits; cited from earlier work
[6] = Pharmacokinetics of apixaban after oral and intravenous administration; plasma concentrations by UPLC-MS, two-compartment model; type: in vivo; settings: horses; for half-life / clearance / Vd: iv
Protocol: The first and last treatments for each horse were IV administration of drug or placebo (Figure 1). […] Investigators were blinded to each treatment until the conclusion of the study.
Blood samples were collected before drug administration (time 0) and at 3 (IV) or 15 (PO) min, then at 30, 45 min, 1, 2, 3, 4, 6, 8, and 24 h after drug administration into 6-mL syringes (Monoject Syringe, Covidien Ltd, Mansfield, MA, USA) prefilled with 3.8% citrate anticoagulant (Sigma-Aldrich, St Louis, MO, USA) maintaining a ratio of 9:1 blood:citrate. The citrate-anticoagulated blood was used to prepare platelet-poor plasma (PPP) for measurement of UPLC-MS concentrations, anti-Xa activities and dilute prothrombin times (dPT) and platelet-rich plasma (PRP) for flow cytometric analysis of ex vivo platelet activation in response to exposure to EHV-1. Blood was also collected into EDTA- and non-anticoagulant samples for clinical pathologic testing before and 24 h after each treatment (Figure 1). With the exception of 24 h samples, blood was collected at each time point through an indwelling jugular catheter (14 G × 15 cm, Milacath®, MILA International, Florence, KY, USA) after removing 20–30 mL of blood. Patency of the catheters was maintained by flushes with sterile saline solution (0.9% sodium chloride injection USP, Baxter Healthcare Corporation, Deerfield, IL, USA) after each blood draw. The catheter was removed after collection of the 8 h sample. For IV administration, a second catheter was placed in the opposite jugular vein for bolus drug delivery and removed immediately after drug administration and flushing of the catheter with sterile saline. For the 24 h sample, blood was collected from the jugular vein (the vein contralateral to that used for the indwelling catheter) into a 3.8% citrate anticoagulant prefilled 6-mL syringe via an 18 G needle (Monoject Veterinary Needle, Covidien Ltd, Mansfield, MA, USA) and into EDTA- and non-anticoagulant vacutainers (Becton-Dickinson, Franklin Lakes, NJ, USA) via a vacutainer needle (21 G, Becton-Dickinson Eclipse™ Vacutainer® with pre-attached holder).
This was performed as previously described ([33]). Analysis by UPLC-MS/MS was performed on a 2D UPLC system (Waters Acquity UPLC H-class with 2D Technology System, Waters GmbH, Eschborn, Germany) directly coupled to a Xevo TQ-S tandem mass spectrometer (Waters GmbH, Eschborn, Germany) which was operated in electrospray positive ionization mode. The system control and data acquisition were performed using MassLynx NT 4.1 software with automated data processing by the MassLynx QuanLynx program provided with the instrument. The lower limit of detection for all DOACs of the UPLC-MS/MS method was < 0.2 ng/mL. Since DOAC values < 7 ng/ml were not clinically relevant, all time points below this value were considered zero.
Pharmacokinetic analysis was performed using a two-compartment open model with weighting of 1/y^2 (Phoenix®, WinNonlin® software, Certara Inc., St. Louis, Missouri).
Secondary parameters calculated include distribution (α) and elimination (β) half-lives (T½), microdistribution rate constants, area-under-the-curve (AUC), apparent volume of distribution at steady-state (VSS), systemic clearance (CL), and mean residence time (MRT).

[7] = chimpanzees; cited from earlier work
[8] = system: P-glycoprotein; settings: cited from earlier work
[9] = rabbits, cited from earlier work
[10] = cats, cited from earlier work
[11] = single oral dose 0.2 mg/kg, 0.2 mg/kg

T1 sequence (P00743 234-492 limits assumed): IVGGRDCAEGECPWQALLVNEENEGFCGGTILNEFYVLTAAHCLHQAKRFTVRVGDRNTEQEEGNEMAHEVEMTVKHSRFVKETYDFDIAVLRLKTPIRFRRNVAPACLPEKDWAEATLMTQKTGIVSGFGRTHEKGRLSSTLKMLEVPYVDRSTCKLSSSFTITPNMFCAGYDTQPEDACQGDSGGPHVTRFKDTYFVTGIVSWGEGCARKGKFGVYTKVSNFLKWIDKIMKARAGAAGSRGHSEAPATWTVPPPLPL
T1 sequence (P00743 41-180 limits assumed): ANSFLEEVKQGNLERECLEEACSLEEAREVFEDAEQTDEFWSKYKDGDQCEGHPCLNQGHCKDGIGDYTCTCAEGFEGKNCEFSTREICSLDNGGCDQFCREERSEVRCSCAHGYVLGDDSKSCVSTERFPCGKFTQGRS

For `COc1ccc(-n2nc(C(N)=O)c3c2C(=O)N(c2ccc(N4CCCCC4=O)cc2)CC3)cc1` [apixaban], the “inhibition of platelet activation in spiked equine PRP” value [1] is listed as “did not see any inhibition”, the “fecal route of elimination, share of the dose” value [2] is listed as “more than 54%” and the “changes in hematologic test results” value [3] is listed as “no significant changes”. The “Anti-Xa activity (ng/mL), median (range)” value ([4]; 15 min) was 7.4 (5.9–9.4) ng/mL, the “Anti-Xa activity (ng/mL), median (range)” value ([4]; 30 min) was 7.5 (6.8–12.5) ng/mL and the “Anti-Xa activity (ng/mL), median (range)” value ([4]; 45 min) was 9.9 (8.4–10.1) ng/mL. For the same compound, the “Anti-Xa activity (ng/mL), median (range)” value ([4]; 1 h) was 10.9 (8.4–17) ng/mL, the “Anti-Xa activity (ng/mL), median (range)” value ([4]; 2 h) was 9.7 (7.4–14.8) ng/mL and the “Anti-Xa activity (ng/mL), median (range)” value ([4]; 4 h) was 9.3 (3.8–12) ng/mL. For the same compound, the “Anti-Xa activity (ng/mL), median (range)” value ([4]; 6 h) was 10.7 (6.3–13.8) ng/mL, the “Anti-Xa activity (ng/mL), median (range)” value ([4]; 24 h) was 7.6 (0–8.3) ng/mL and the “change in anti-Xa activity” value ([4]; oral dosing of apixaban) was “No change”. For the same compound, the apixaban protein bound [5] was ~ 60%, the half-life ([6]; horse, plasma, IV administration, read-out: elimination half-life (converted)) was 1.3 ± 0.2 h and the clearance ([6]; horse, plasma, IV administration, read-out: rate of clearance (converted)) was 2.53 mL/min/kg. For the same compound, the Vd ([6]; horse, plasma, IV administration, read-out: volume of distribution (VDSS)) was 0.0933 ± 0.0756 L/kg, the Tmax ([6]; horse, plasma, IV administration, read-out: time of peak plasma concentration (converted)) was 3 min and the “volume of distribution (VDSS)” value ([6]; IV administration) was ~ 90 mL/kg. For the same compound, the “time by which plasma apixaban decreased to undetectable levels” value ([6]; IV administration, all horses) was no more than 8 h, the “apixaban in plasma after oral administration (UPLC-MS)” value [6, 11] was “no detectable apixaban in plasma; also recorded: not detected in plasma” and the oral absorption [6, 11] was “not orally absorbed”. The clearance ([6]; plasma, single IV dose […], read-out: CL (systemic clearance), geometric mean (converted)) was 2.45 mL/min/kg, the clearance ([6]; plasma, single IV dose […], read-out: CL (systemic clearance), mean (converted)) was 2.53 mL/min/kg and the Vd ([6]; plasma, single IV dose […], read-out: VC (apparent volume of distribution for central compartment), geometric mean) was 0.0164 L/kg. The Vd ([6]; plasma, single IV dose […], read-out: VC (apparent volume of distribution for central compartment), mean) was 0.0201 L/kg, the Vd ([6]; plasma, single IV dose […], read-out: VSS (volume of distribution at steady-state), geometric mean) was 0.0718 L/kg and the Vd ([6]; plasma, single IV dose […], read-out: VSS (volume of distribution at steady-state), mean) was 0.0933 L/kg. The half-life ([6]; plasma, single IV dose […], read-out: t½β (half-life of the elimination phase), geometric mean (converted)) was 1.27 h, the half-life ([6]; plasma, single IV dose […], read-out: t½β (half-life of the elimination phase), mean (converted)) was 1.28 h and the “availability after oral administration” value [7] was 50%. The P-glycoprotein substrate [8] was “substrate”, the half-life ([9]; 2.5 mg/kg IV dose) was 0.6 h and the oral absorption ([9]; 10 mg/kg) was 3%. The half-life ([10]; 0.2 mg/kg IV dose) was 1.1 h, the Cmax ([10]; IV administration 0.2 mg/kg) was 460 ng/mL and the bioavailability ([10]; oral 0.2 mg/kg) was 85%. For the same compound, the Cmax ([10]; oral administration 0.2 mg/kg) was 74 ng/mL.

— paper PMC6288471 (Frontiers in Veterinary Science, 2018)
